Values after ≈ are worked out from the molar mass of the structure shown. Like-named read-outs stand apart in the source and are kept apart here.
Tests used:
[1] = test system: Mycobacterium tuberculosis test strain H375RV; test: Growth inhibition of Mycobacterium tuberculosis in liquid culture; format: cell-based; conditions: for antibiotic activity against Mycobacterium tuberculosis: clinical isolates and reference strains
Method: Using the standard Mycobacterium tuberculosis test strain H375RV, it could be shown that thuggacin A inhibited growth at or below 8 μg/mL in liquid culture.
For tests of the biological activity, preferably aqueous compositions of the thuggacins according to the present invention were used separately in an aqueous composition comprising 10 mM acetic acid for stabilisation.

Micrococcus luteus [2] = test: Inhibition of oxygen demand/consumption of Micrococcus luteus in liquid culture; format: cell-based; conditions: initial studies
[3] = test system: NADH oxidation of crude cytoplasmic membrane fractions; test: Inhibition of NADH oxidation of crude cytoplasmic membrane fractions; format: biochemical; conditions: initial studies using Micrococcus luteus
Corynebacterium fascians = test: Agar diffusion test; format: cell-based; conditions: Rhodococcoides fascians, read-out: Diameter of inhibition zone
Method: (§1) In an agar diffusion test using 10 μg of the compound per disc, the following inhibition was found: […]

Micrococcus luteus [4] = test: Agar diffusion test; format: cell-based; conditions: read-out: Diameter of inhibition zone
Method: as §1

Mycobacterium phlei = test: Agar diffusion test; format: cell-based; conditions: Mycolicibacterium phlei, read-out: Diameter of inhibition zone
Method: as §1

[5] = Stability / rearrangement of thuggacins in protic solvent; format: physicochemical; conditions: for stability in aqueous solution: optionally comprising a C1-C2 alcohol
Method: Starting from 8 mg/mL thuggacin A, an equilibrium of thuggacin A, thuggacin-B and thuggacin C could be found after approximately 96 hours. In general, the reaction time for reaching the equilibrium can vary over a broad range, e.g. from 1 to 20 days. Re-crystallized thuggacin of high purity is nearly stable, i.e. undergo rearrangement only very slowly. Thuggacin A having a lower purity will undergo rearrangement to thuggacin B and C with increased reaction rates. Similar stabilities have been observed for the rearrangement reaction of thuggacin cmc-A to thuggacin cmc-B and cmc-C.

[6] = test system: Micrococcus luteus, Mycobacterium phlei and M. chitae; test: MIC in liquid culture
[7] = test system: mouse fibroblast cells (L929); test: Sensitivity of cultivated mouse fibroblast cells

C/C=C(C)/C=C(\C)C(O)C(C)C(O)C(O)C1C/C=C(C)\C=C\C(O)CC(O)C(C)c2nc(cs2)/C=C(\CCCCCC)C(=O)O1 (centres unmarked) [13-methyl thuggacin A]
antibiotic activity against Mycobacterium tuberculosis [1]: antibiotic activity

C/C=C(C)/C=C(\C)C(O)C(C)C(O)C(O)C1C/C=C\C=C\C(O)CC(O)C(C)c2nc(cs2)/C=C(\CCCCCC)C(=O)O1 (centres unmarked) [thuggacin A]
inhibition of oxygen consumption (Micrococcus luteus [2]): almost completely | oxidation of NADH and of reduced cytochrome c [3]: reduced | antibiotic activity against Mycobacterium tuberculosis [1]: antibiotic activity | concentration inhibiting growth ([1]; liquid culture, strain H375RV): ≤ 8 µg/mL | zone of inhibition at 10 µg/disc (Corynebacterium fascians; 10 μg of compound per disc, Corynebacterium fascians, figures in parentheses indicate an incomplete inhibition): 30 mm | zone of inhibition at 10 µg/disc (Micrococcus luteus [4]; 10 μg of compound per disc): 29 mm | zone of inhibition at 10 µg/disc (Mycobacterium phlei; 10 μg of compound per disc, Mycobacterium phlei): 20 mm | stability in aqueous solution [5]: not stable | time to equilibrium of thuggacin A, thuggacin B and thuggacin C ([5]; starting from 8 mg/mL thuggacin A, aqueous composition optionally including methanol (FIG. 1: methanol)): approximately 96 hours | relative effectiveness in liquid culture MIC experiments [6]: most effective | IC50 [7]: 4 µg/mL (≈ 6.33 µM)

C/C=C(C)/C=C(\C)C(O)C(C)C(O)C1OC(=O)/C(CCCCCC)=C/c2csc(n2)C(C)C(O)CC(O)/C=C/C=C\CC1O (centres unmarked) [thuggacin B]
antibiotic activity against Mycobacterium tuberculosis [1]: antibiotic activity | stability in aqueous solution [5]: not stable | relative effectiveness in liquid culture MIC experiments [6]: most effective | IC50 [7]: 8 µg/mL (≈ 12.7 µM)

C/C=C(C)/C=C(\C)C(O)C(C)C1OC(=O)/C(CCCCCC)=C/c2csc(n2)C(C)C(O)CC(O)/C=C/C=C\CC(O)C1O (centres unmarked) [thuggacin C]
antibiotic activity against Mycobacterium tuberculosis [1]: antibiotic activity | relative effectiveness in liquid culture MIC experiments [6]: less effective against certain bacteria

C/C=C(C)/C=C(\C)CC(C)C(O)C(O)C1C/C=C\C=C\C(O)CC(O)C(CO)c2nc(cs2)/C=C(\C)C(=O)O1 (centres unmarked) [thuggacin cmc-A]
zone of inhibition at 10 µg/disc (Corynebacterium fascians): 47 mm | zone of inhibition at 10 µg/disc (Micrococcus luteus [4]): 46 mm | zone of inhibition at 10 µg/disc (Mycobacterium phlei): 24 mm | relative effectiveness in liquid culture MIC experiments [6]: most effective

C/C=C(C)/C=C(\C)CC(C)C(O)C1OC(=O)/C(C)=C/c2csc(n2)C(CO)C(O)CC(O)/C=C/C=C\CC1O (centres unmarked) [thuggacin cmc-B]
relative effectiveness in liquid culture MIC experiments [6]: most effective

C/C=C(C)/C=C(\C)CC(C)C1OC(=O)/C(C)=C/c2csc(n2)C(CO)C(O)CC(O)/C=C/C=C\CC(O)C1O (centres unmarked) [thuggacin cmc-C]
zone of inhibition at 10 µg/disc (Corynebacterium fascians): 44 mm | zone of inhibition at 10 µg/disc (Micrococcus luteus [4]): 44 mm | zone of inhibition at 10 µg/disc (Mycobacterium phlei): 22 mm

From US8114864B2, “Macrolide antibiotics and their use for medical purposes” (Helmholtz-Zentrum Fuer Infektionsforschung, priority 2006, dated 2012)
